Results: US20120258980A1, “Antibacterial Agent for Drug-Resistant Bacteria, Method for Screening for Same, and Use of Same” (priority 2009, published 2012)
≈ marks a conversion by molar mass, not a printed value. Read-outs that look alike come from different tables or passages of the source.

How the values were obtained:
[1] = system: methicillin-susceptible S. aureus (MSSA), MRSA and mutants thereof; assay: MIC measurement, Test Example 3 (MSSA, MRSA and sequential gyrA/grlA quinolone-resistant mutants); assay type: cell-based, Staphylococcus aureus; details: Staphylococcus aureus
Method in brief: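 Clinical isolates and stepwise gyrA/grlA quinolone-resistant mutants grown overnight at 37° C in TSB, adjusted to A578 0.3 in CAMHB, diluted 500-fold and mixed 1:1 with drug dilutions in CAMHB.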

[2] = system: MRSA, CA-MRSA and MSSA of Staphylococcus aureus; assay: MIC measurement, Test Example 4 (MRSA, CA-MRSA and MSSA strains); assay type: cell-based; details: Staphylococcus aureus
Method in brief: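 S. aureus strains (FDA209P control) grown overnight in TSB at 37° C, resuspended in CAMHB, adjusted to A578 0.3 and diluted 500-fold. Equal volume added to CAMHB with serial compound concentrations, incubated statically overnight at 37° C. MIC read visually as lowest concentration without turbidity.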

VRSA clinical isolates = assay: microbe, parasite or virus in culture; assay type: cell-based; details: Staphylococcus aureus
Method in brief: (§1)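 Strains were grown overnight at 37° C in TSB, adjusted in CAMHB to 0.3 absorbance at 578 nm and diluted 500-fold before equal-volume addition to compound dilutions.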

[3] = system: VISA clinical isolates of MRSA (VI-MRSA) and of MSSA (VI-MSSA); assay: microbe, parasite or virus in culture; assay type: cell-based, Staphylococcus aureus
Method in brief: as §1

`C[C@H]1COc2c(N3CCN(C)CC3)c(F)cc3c(=O)c(C(=O)O)cn1c23` [LVFX, levofloxacin] was tested, and the MIC ([1]; FDA209P / MRSA / MSSA, FDA209P (MSSA), control, read-out: MIC) was ≤ 0.063 µg/mL, the MIC ([1]; MR5867-4, fourth-step mutant, further gyrA E88K) was > 128 µg/mL and the MIC ([1]; MS5935-3, third-step mutant, further grlA E84K) was 64 µg/mL (≈ 177 µM). It also gave an MIC ([1]; MS5952-3, third-step mutant, further grlA A116V) of 32 µg/mL (≈ 88.6 µM), an MIC ([2]; ATCC 29213 / MRSA / MSSA, ATCC 29213, MSSA) of 0.125 µg/mL (≈ 0.346 µM) and an MIC ([2]; COL, MRSA) of 0.5 µg/mL (≈ 1.38 µM). For the same compound, the MIC ([2]; FDA209P / MRSA / MSSA, FDA209P, MSSA) was ≤ 0.063 µg/mL, the MIC ([2]; ISA12-1, MRSA) was 0.25 µg/mL (≈ 0.692 µM) and the MIC ([2]; ISA12-2, MRSA) was 0.25 µg/mL (≈ 0.692 µM). For the same compound, the MIC ([2]; ISA35-1, MRSA) was 1 µg/mL (≈ 2.77 µM), the MIC ([2]; ISA37-1, MSSA) was 0.25 µg/mL (≈ 0.692 µM) and the MIC ([2]; ISA49-1, MSSA) was 0.25 µg/mL (≈ 0.692 µM). For the same compound, the MIC ([2]; ISA51-1, MSSA) was 0.25 µg/mL (≈ 0.692 µM), the MIC ([2]; ISA56-3, MRSA) was 0.25 µg/mL (≈ 0.692 µM) and the MIC ([2]; ISA58-1, MRSA) was 0.5 µg/mL (≈ 1.38 µM). For the same compound, the MIC ([2]; ISA62-1, MRSA) was 0.25 µg/mL (≈ 0.692 µM), the MIC ([2]; ISA73-1, MSSA) was 0.125 µg/mL (≈ 0.346 µM) and the MIC ([2]; KBSA32, MRSA) was 0.125 µg/mL (≈ 0.346 µM). For the same compound, the MIC ([2]; KBSA34, MRSA) was 0.25 µg/mL (≈ 0.692 µM), the MIC ([2]; KBSA72, MRSA) was > 128 µg/mL and the MIC ([2]; KBSA96, MRSA) was 8 µg/mL (≈ 22.1 µM). For the same compound, the MIC ([2]; KBSA171, MRSA) was 16 µg/mL (≈ 44.3 µM), the MIC ([2]; KSA24, MRSA) was 8 µg/mL (≈ 22.1 µM) and the MIC ([2]; KSA31, MRSA) was 4 µg/mL (≈ 11.1 µM). The MIC ([2]; KSA36, MRSA) was > 128 µg/mL, the MIC ([2]; MRSA / MSSA / NCTC 8325, NCTC 8325, MSSA) was 0.25 µg/mL (≈ 0.692 µM) and the MIC ([2]; MRSA / MSSA / USA300, USA300 FPR3757, CA-MRSA) was 32 µg/mL (≈ 88.6 µM). The MIC ([2]; MW2, CA-MRSA) was 0.125 µg/mL (≈ 0.346 µM), the MIC ([2]; N315, MRSA) was 0.125 µg/mL (≈ 0.346 µM) and the MIC (VRSA clinical isolates; VRS1, VRSA, Michigan) was 16 µg/mL (≈ 44.3 µM). For the same compound, the MIC (VRSA clinical isolates; VRS2, VRSA, Pennsylvania) was 16 µg/mL (≈ 44.3 µM), the MIC (VRSA clinical isolates; VRS3, VRSA, New York) was 16 µg/mL (≈ 44.3 µM) and the MIC (VRSA clinical isolates; VRS4, VRSA, New York) was 32 µg/mL (≈ 88.6 µM). The MIC (VRSA clinical isolates; VRS5, VRSA, Michigan) was > 128 µg/mL, the MIC (VRSA clinical isolates; VRS6, VRSA, Michigan) was 32 µg/mL (≈ 88.6 µM) and the MIC (VRSA clinical isolates; VRS7, VRSA, Michigan) was 32 µg/mL (≈ 88.6 µM). For the same compound, the MIC ([3]; Staphylococcus aureus, 99/3700-W, VI-MRSA, The United Kingdom) was 16 µg/mL (≈ 44.3 µM), the MIC ([3]; Staphylococcus aureus, 99/3759-V, VI-MRSA, The United Kingdom) was 16 µg/mL (≈ 44.3 µM) and the MIC ([3]; Staphylococcus aureus, 28160, VI-MRSA, South African Republic) was 8 µg/mL (≈ 22.1 µM). For the same compound, the MIC ([3]; Staphylococcus aureus, 98141, VI-MRSA, France) was 16 µg/mL (≈ 44.3 µM), the MIC ([3]; Staphylococcus aureus, A7 (JCSC4842), VI-MRSA, Taiwan) was 8 µg/mL (≈ 22.1 µM) and the MIC ([3]; Staphylococcus aureus, AMC11094, VI-MRSA, Korea) was 16 µg/mL (≈ 44.3 µM). For the same compound, the MIC ([3]; Staphylococcus aureus, B7 (JCSC4852), VI-MRSA, Taiwan) was 8 µg/mL (≈ 22.1 µM), the MIC ([3]; Staphylococcus aureus, BR1, VI-MRSA, Brazil) was 16 µg/mL (≈ 44.3 µM) and the MIC ([3]; Staphylococcus aureus, BR2, VI-MRSA, Brazil) was 8 µg/mL (≈ 22.1 µM). The MIC ([3]; Staphylococcus aureus, BR3, VI-MRSA, Brazil) was 16 µg/mL (≈ 44.3 µM), the MIC ([3]; Staphylococcus aureus, BR4, VI-MRSA, Brazil) was 8 µg/mL (≈ 22.1 µM) and the MIC ([3]; Staphylococcus aureus, BR5, VI-MRSA, Brazil) was 16 µg/mL (≈ 44.3 µM). The MIC ([3]; Staphylococcus aureus, HIP06297, VI-MRSA, America) was 4 µg/mL (≈ 11.1 µM), the MIC ([3]; Staphylococcus aureus, HIP06854, VI-MRSA, America) was 16 µg/mL (≈ 44.3 µM) and the MIC ([3]; Staphylococcus aureus, HIP07920, VI-MRSA, America) was 8 µg/mL (≈ 22.1 µM). The MIC ([3]; Staphylococcus aureus, HIP07930, VI-MRSA, America) was 32 µg/mL (≈ 88.6 µM), the MIC ([3]; Staphylococcus aureus, HIP08926, VI-MRSA, America) was 16 µg/mL (≈ 44.3 µM) and the MIC ([3]; Staphylococcus aureus, HIP09143, VI-MRSA, America) was 32 µg/mL (≈ 88.6 µM). It also gave an MIC ([3]; Staphylococcus aureus, HIP09313, VI-MRSA, America) of 8 µg/mL (≈ 22.1 µM), an MIC ([3]; Staphylococcus aureus, HIP09433, VI-MRSA, America) of 32 µg/mL (≈ 88.6 µM) and an MIC ([3]; Staphylococcus aureus, HIP09662, VI-MRSA, America) of 32 µg/mL (≈ 88.6 µM). The MIC ([3]; Staphylococcus aureus, HIP09735, VI-MRSA, America) was 8 µg/mL (≈ 22.1 µM), the MIC ([3]; Staphylococcus aureus, HIP09737, VI-MSSA, America) was 32 µg/mL (≈ 88.6 µM) and the MIC ([3]; Staphylococcus aureus, HIP09740, VI-MRSA, America) was 32 µg/mL (≈ 88.6 µM). It also gave an MIC ([3]; Staphylococcus aureus, HIP10267, VI-MRSA, America) of 32 µg/mL (≈ 88.6 µM), an MIC ([3]; Staphylococcus aureus, HIP10540, VI-MRSA, America) of 8 µg/mL (≈ 22.1 µM) and an MIC ([3]; Staphylococcus aureus, HIP12864, VI-MRSA, America) of 32 µg/mL (≈ 88.6 µM). It also gave an MIC ([3]; Staphylococcus aureus, HIP13036, VI-MRSA, America) of 4 µg/mL (≈ 11.1 µM), an MIC ([3]; Staphylococcus aureus, HIP13057, VI-MRSA, America) of 16 µg/mL (≈ 44.3 µM) and an MIC ([3]; Staphylococcus aureus, IL (HIP7737), VI-MRSA, America) of 32 µg/mL (≈ 88.6 µM). It also gave an MIC ([3]; Staphylococcus aureus, JCSC7193, VI-MRSA, Thailand) of 16 µg/mL (≈ 44.3 µM), an MIC ([3]; Staphylococcus aureus, JCSC7195, VI-MRSA, Thailand) of 32 µg/mL (≈ 88.6 µM) and an MIC ([3]; Staphylococcus aureus, JCSC7203, VI-MRSA, Thailand) of 16 µg/mL (≈ 44.3 µM). For the same compound, the MIC ([3]; Staphylococcus aureus, LIM2, VI-MRSA, France) was 32 µg/mL (≈ 88.6 µM), the MIC ([3]; Staphylococcus aureus, LY-1999-01, VI-MSSA, Oman) was 4 µg/mL (≈ 11.1 µM) and the MIC ([3]; Staphylococcus aureus, LY-1999-03, VI-MRSA, Oman) was 4 µg/mL (≈ 11.1 µM). For the same compound, the MIC ([3]; Staphylococcus aureus, MI (HIP5827), VI-MRSA, America) was 32 µg/mL (≈ 88.6 µM), the MIC ([3]; Staphylococcus aureus, MRSA / MSSA / NRS 76 / VISA, NRS76, VI-MSSA, America) was 16 µg/mL (≈ 44.3 µM) and the MIC ([3]; Staphylococcus aureus, MRSA / MSSA / NRS 79 / VISA, NRS79, VI-MRSA, America) was 64 µg/mL (≈ 177 µM). For the same compound, the MIC ([3]; Staphylococcus aureus, MRSA / MSSA / NRS 118 / VISA, NRS118, VI-MRSA, America) was 32 µg/mL (≈ 88.6 µM), the MIC ([3]; Staphylococcus aureus, MRSA / MSSA / NRS 126 / VISA, NRS126, VI-MRSA, America) was 4 µg/mL (≈ 11.1 µM) and the MIC ([3]; Staphylococcus aureus, Mu3, VI-MRSA, Japan) was 16 µg/mL (≈ 44.3 µM). It also gave an MIC ([3]; Staphylococcus aureus, Mu50, VI-MRSA, Japan) of 8 µg/mL (≈ 22.1 µM), an MIC ([3]; Staphylococcus aureus, NJ (HIP5836), VI-MRSA, America) of 16 µg/mL (≈ 44.3 µM) and an MIC ([3]; Staphylococcus aureus, P1V44, VI-MSSA, Belgium) of 4 µg/mL (≈ 11.1 µM). It also gave an MIC ([3]; Staphylococcus aureus, PC, VI-MRSA, America) of 8 µg/mL (≈ 22.1 µM), an MIC ([3]; Staphylococcus aureus, SA MER-S6, VI-MSSA, France) of 0.5 µg/mL (≈ 1.38 µM) and an MIC ([3]; Staphylococcus aureus, SA MER-S12, VI-MSSA, France) of 0.5 µg/mL (≈ 1.38 µM). For the same compound, the MIC ([3]; Staphylococcus aureus, SA MER-S20, VI-MSSA, France) was 0.125 µg/mL (≈ 0.346 µM).
